{"source": "patent US6132740A", "about": "“Resorcinol derivatives” (Pfizer Inc., priority 1998, dated 2000)", "key": {"black guinea pigs": {"test_system": "black guinea pigs", "test": "In vivo depigmentation study in black guinea pigs", "parameters": "species or system guinea pig", "conditions": "for depigmentation of skin (in words): 5% in ethanol:propylene glycol 70:30, twice daily, 5 days per week for 4-8 weeks, black or dark brown guinea pigs; for reduction of pigmentation in treated ears (in words) / reversibility of the depigmentation effect (in words) / Depigmentation effect, Δ light reflectance (treated ear - untreated ear), 1 week post-treatment / Depigmentation effect, Δ light reflectance (treated ear - untreated ear), 3-week / Depigmentation effect, Δ light reflectance (treated ear - untreated ear), 6-week / Depigmentation effect, Δ light reflectance (treated ear - untreated ear), 8.5 week: 5% in ethanol:propylene glycol (70:30); for reduction of pigmentation in treated ears (in words) / reversibility of the depigmentation effect (in words): ears of black guinea pigs; for reversibility of the depigmentation effect (in words): after ceasing treatment; for Depigmentation effect, Δ light reflectance (treated ear - untreated ear), 1 week post-treatment / Depigmentation effect, Δ light reflectance (treated ear - untreated ear), 3-week / Depigmentation effect, Δ light reflectance (treated ear - untreated ear), 6-week / Depigmentation effect, Δ light reflectance (treated ear - untreated ear), 8.5 week: topical to ears of black guinea pigs, one value per animal; for Depigmentation effect, Δ light reflectance (treated ear - untreated ear), 3-week / Depigmentation effect, Δ light reflectance (treated ear - untreated ear), 6-week / Depigmentation effect, Δ light reflectance (treated ear - untreated ear), 8.5 week: positive value indicates depigmentation", "procedure": "Black or dark brown guinea pigs with homogeneous skin color can be used in this study. A solution of the test compound of formula I (5% in ethanol:propylene glycol, 70:30) and the vehicle control are applied to the animals twice daily, 5 days per week for 4-8 weeks.\nIn vivo experiments were carried out to determine the depigmenting effects of 4-cyclohexylresorcinol and 4-cyclopentylresorcinol using the assay described above (in vivo study). Thus, 5% 4-cyclohexylresorcinol and 5% 4-cyclopentylresorcinol, each in ethanol:propylene glycol (70:30), were administered separately to the ears of black guinea pigs. Depigmentation was determined by subtracting the light reflectance of untreated ears from the light reflectance of treated ears."}, "human tyrosinase": {"target": "T1, human tyrosinase (Homo sapiens, UniProt P14679)", "T1 construct": "endogenous in cells; host or cells: SKMEL 188 human melanoma cell line (licensed from Memorial Sloan-Kettering), lysate", "T1 sequence (P14679 19-529)": "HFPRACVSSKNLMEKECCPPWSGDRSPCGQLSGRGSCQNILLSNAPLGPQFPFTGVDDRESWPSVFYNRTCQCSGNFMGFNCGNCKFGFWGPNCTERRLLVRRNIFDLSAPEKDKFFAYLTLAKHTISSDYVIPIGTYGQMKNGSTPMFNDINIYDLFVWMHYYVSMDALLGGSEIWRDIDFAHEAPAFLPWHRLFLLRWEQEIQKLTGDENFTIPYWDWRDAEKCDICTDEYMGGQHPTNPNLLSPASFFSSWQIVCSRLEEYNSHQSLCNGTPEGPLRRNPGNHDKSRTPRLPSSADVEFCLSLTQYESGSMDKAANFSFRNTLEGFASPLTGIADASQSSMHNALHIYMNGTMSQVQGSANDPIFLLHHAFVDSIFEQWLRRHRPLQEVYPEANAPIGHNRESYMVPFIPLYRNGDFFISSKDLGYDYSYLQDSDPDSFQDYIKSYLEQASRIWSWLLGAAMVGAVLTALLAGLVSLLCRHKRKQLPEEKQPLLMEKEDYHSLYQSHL", "test": "Tyrosinase (DOPA oxidase) assay using cell lysate", "format": "biochemical", "conditions": "SKMEL 188 human melanoma cell lysate, L-DOPA 100 μg/ml, 8 hours, read at 405 nm", "procedure": "1. Tyrosinase (DOPA oxidase) Assay Using Cell Lysate:\nHuman melanoma cell line, SKMEL 188 (licensed from Memorial Sloan-Kettering), is used in the cell lysate assay and the screen. In the assay, compounds and L-dihydroxyphenylalanine (L-DOPA) (100 μg/ml) are incubated with the cell lysates containing human tyrosinase for 8 hours before the plates are read at 405 nm. Potency of the compounds in DOPA oxidase assay is correlated very well with that in tyrosine hydroxylase assay using 3H-tyrosine as a substrate."}}, "note": "Where “and” joins values, the source holds several entries; their conditions need not be identical. Equal entries are not always repeated."}
{"smiles": "Oc1ccc(C2CCCC2)c(O)c1", "note": "[4-cyclopentylresorcinol, 4-Cyclopentylresorcinol]", "values": [{"measurement": "depigmentation of skin (in words)", "setting": "black guinea pigs", "result": "depigmentation of skin was visualized"}, {"measurement": "reduction of pigmentation in treated ears (in words)", "setting": "black guinea pigs", "result": "reduced pigmentation in treated ears starting 3 weeks after initial treatment"}, {"measurement": "reversibility of the depigmentation effect (in words)", "setting": "black guinea pigs", "result": "reversible, and repigmentation partially resumed one week after ceasing treatment"}, {"measurement": "Depigmentation effect, Δ light reflectance (treated ear - untreated ear), 1 week post-treatment", "setting": "black guinea pigs", "result": 6}, {"measurement": "Depigmentation effect, Δ light reflectance (treated ear - untreated ear), 3-week", "setting": "black guinea pigs", "result": "15 and 9 and 4"}, {"measurement": "Depigmentation effect, Δ light reflectance (treated ear - untreated ear), 6-week", "setting": "black guinea pigs", "result": "12 and 9"}, {"measurement": "Depigmentation effect, Δ light reflectance (treated ear - untreated ear), 8.5 week", "setting": "black guinea pigs", "result": "10 and 18 and 7"}]}
{"smiles": "Oc1ccc(C2CCCCC2)c(O)c1", "note": "[4-cyclohexylresorcinol, 4-Cyclohexylresorcinol]", "values": [{"measurement": "IC50", "setting": "human tyrosinase", "result": 300, "unit": "nM"}, {"measurement": "depigmentation of skin (in words)", "setting": "black guinea pigs", "result": "depigmentation of skin was visualized"}, {"measurement": "reduction of pigmentation in treated ears (in words)", "setting": "black guinea pigs", "result": "reduced pigmentation in treated ears starting 3 weeks after initial treatment"}, {"measurement": "reversibility of the depigmentation effect (in words)", "setting": "black guinea pigs", "result": "reversible, and repigmentation partially resumed one week after ceasing treatment"}, {"measurement": "Depigmentation effect, Δ light reflectance (treated ear - untreated ear), 1 week post-treatment", "setting": "black guinea pigs", "result": "1 and 0"}, {"measurement": "Depigmentation effect, Δ light reflectance (treated ear - untreated ear), 3-week", "setting": "black guinea pigs", "result": "13 and 0 and 14 and 3"}, {"measurement": "Depigmentation effect, Δ light reflectance (treated ear - untreated ear), 6-week", "setting": "black guinea pigs", "result": "8 and 0 and 14 and 7"}, {"measurement": "Depigmentation effect, Δ light reflectance (treated ear - untreated ear), 8.5 week", "setting": "black guinea pigs", "result": "6 and 7 and 19"}]}
